Test results from paper PMC8348901, “Novel N-Substituted 3-Aryl-4-(diethoxyphosphoryl)azetidin-2-ones as Antibiotic Enhancers and Antiviral Agents in Search for a Successful Treatment of Complex Infections” (International Journal of Molecular Sciences, 2021).
Read-outs that look alike come from different tables or passages of the source.

Tests used:
in vitro = conditions: dog
[1] = tested on: influenza A virus H1N1 subtype; assay: Antiviral assay, influenza A virus H1N1 subtype in MDCK cells; type: cell-based, influenza A virus H1N1 (A/PR/8)
[2] = tested on: cytomegalovirus AD-169 strain; assay: Antiviral CPE reduction assay, cytomegalovirus AD-169 strain in HEL cells; type: cell-based, human cytomegalovirus (HCMV); conditions: Human betaherpesvirus 5, AD169
human coronavirus (229E) = assay: microbe, parasite or virus in culture; type: cell-based
[3] = tested on: human embryonic lung (HEL) cells; conditions: uninfected host cells of the coronavirus/cytomegalovirus assays
[4] = tested on: Capan-1 (pancreatic adenocarcinoma); assay: Cytostatic activity (cell proliferation); type: cell-based
Description: (§1) The 50% cytostatic inhibitory concentration (IC50) causing a 50% decrease in cell proliferation was determined for all obtained compounds toward 9 cancerous cell lines, i.e.,: Capan-1 (pancreatic adenocarcinoma), Hap1 (chronic myeloid leukemia), HCT-116 (colorectal carcinoma), NCI-H460 (lung carcinoma), DND-41 (acute lymphoblastic leukemia), HL-60 (acute myeloid leukemia), K-562 (chronic myeloid leukemia), MM.1S (multiple myeloma), Z-138 non-Hodgkin lymphoma), as well as normal retina (non-cancerous) cells (hTERT RPE-1).
(§2) All assays were performed in 96-well microtiter plates. To each well was added (5–7.5) × 10^4 tumor cells and a given amount of the tested compound. The cells were allowed to proliferate at 37 °C in a humidified, CO2-controlled atmosphere. At the end of the incubation period, the cells were counted in a Coulter counter.

[5] = tested on: Hap1 (chronic myeloid leukemia); assay: Cytostatic activity (cell proliferation); type: cell-based
Description: as §1, with “RPE-1). Docetaxel, etoposide and stauroporine were used as the reference compounds.” for “RPE-1).”
as §2, with “counter. The IC50 (50% inhibitory concentration) was defined as the concentration of the compound that inhibited cell proliferation by 50%.” for “counter.”

[6] = tested on: hTERT RPE-1 normal retina (non-cancerous) cells; assay: Cytostatic activity (cell proliferation); type: cell-based
Description: as §1, with “RPE-1). Docetaxel, etoposide and stauroporine were used as the reference compounds.” for “RPE-1).”
as §2, with “counter. The IC50 (50% inhibitory concentration) was defined as the concentration of the compound that inhibited cell proliferation by 50%.” for “counter.”

[7] = tested on: DND-41 (acute lymphoblastic leukemia); assay: Cytostatic activity (cell proliferation); type: cell-based
Description: as §1, with “RPE-1). Docetaxel, etoposide and stauroporine were used as the reference compounds.” for “RPE-1).”
as §2, with “counter. The IC50 (50% inhibitory concentration) was defined as the concentration of the compound that inhibited cell proliferation by 50%.” for “counter.”

[8] = tested on: NCI-H460 (lung carcinoma); assay: Cytostatic activity (cell proliferation); type: cell-based
Description: as §1, with “RPE-1). Docetaxel, etoposide and stauroporine were used as the reference compounds.” for “RPE-1).”
as §2, with “counter. The IC50 (50% inhibitory concentration) was defined as the concentration of the compound that inhibited cell proliferation by 50%.” for “counter.”

[9] = tested on: HCT-116 (colorectal carcinoma); assay: Cytostatic activity (cell proliferation); type: cell-based
Description: as §1, with “RPE-1). Docetaxel, etoposide and stauroporine were used as the reference compounds.” for “RPE-1).”
as §2, with “counter. The IC50 (50% inhibitory concentration) was defined as the concentration of the compound that inhibited cell proliferation by 50%.” for “counter.”

S. aureus ATCC 25923 = assay: Oxacillin MIC reduction (adjuvant) microdilution assay; type: cell-based, Staphylococcus aureus; conditions: for Activity Gain [A]: MIC(OXA)/MIC(OXA+Cpd), compound 0.5 mM, adjuvant activity if A ≥ 4
Description: (§3) Since the lack of direct antibacterial activity of the obtained azetidinones was observed, all isomers trans and cis were investigated on their “adjuvant” properties, i.e., an ability to enhance the effectiveness of antibiotics against S. aureus strains. Thus, the compounds were tested in combination with the known β-lactam antibiotic, oxacillin, in the microdilution assays. The ability of the tested azetidinones to reduce minimum inhibitory concentration (MIC) of oxacillin against both, the referenced and the resistant S. aureus strains, was assessed.
(§4) The in-vitro antibacterial property and the capacity of tested compounds to increase the efficacy of antibiotics were evaluated in two Staphylococcus aureus strains, i.e., the reference clonal complex 5 (CC5) methicillin-susceptible (MSSA) strain ATCC 25923, and the methicillin-resistant (MRSA) extensively drug-resistant (XDR) clinical isolate HEMSA-5 [46].
(§5) In order to assess the increase of antibiotic efficacy, the assays were conducted by determining if/to what extent the investigated compounds reduce MICs of oxacillin by means of a serial dilution broth microplate method, in accordance with the CLSI requirements. The concentrations of compounds used in the MICs reduction assay were no greater than 1/4 of their respective MICs to ensure that cell viability was not affected by the intrinsic antibacterial activity of the molecules. Serial two-fold dilutions of oxacillin (Sigma-Aldrich; St. Louis, MI, USA, cat. no. 28221), were prepared in […] of the Mueller–Hinton broth (Merck; Darmstadt, Germany, cat. no. 1102930500). Suitable concentrations of the compounds (total volume […]) were then added. Bacterial suspensions were diluted to OD ¼ 0.5. The resulting suspensions were then diluted 1:100 and added in the volume of […] into the oxacillin serial dilutions with the compounds. The results were read after 20-h incubation at 37 °C.
(§6) The ability of compounds to improve antibiotic efficacy was expressed as the activity gain [A] parameter calculated according to the formula given in Figure 10.
(§7) Figure 10 Activity gain. MICAnt corresponds to the MIC of oxacillin in the absence of a compound tested and MICAnt + Comp refers to the MIC of oxacillin paired with a compound tested.

MRSA HEMSA 5 = assay: as above; type: cell-based, Staphylococcus aureus; conditions: for Activity Gain [A]: MIC(OXA)/MIC(OXA+Cpd), compound 0.5 mM, adjuvant activity if A ≥ 4
Description: as §3, §4, §5, §6, §7

[10] = tested on: Madin Darby canine kidney cells (MDCK); conditions: microscopically detectable alteration of cell morphology
[11] = H1N1, MDCK cells, visual CPE score, read-out: EC50 by visual CPE score, influenza A virus H1N1
[12] = H1N1, MDCK, read-out: EC50 by TMS score, influenza A virus H1N1
[13] = oxacillin MIC in presence of 0.5 mM compound

Compound	IC50 ([4]; Homo sapiens, CAPAN-1) [µM]	IC50 ([5]; Homo sapiens, HAP1) [µM]	IC50 ([6]; hTERT-RPE1) [µM]	IC50 ([7]; DND41) [µM]	IC50 ([8]; Homo sapiens, NCI-H460) [µM]	IC50 ([9]; Homo sapiens, HCT-116) [µM]	Activity Gain [A] (S. aureus ATCC 25923)	Activity Gain [A] (MRSA HEMSA 5)	also measured
NC(=O)c1ncn([C@@H]2O[C@H](CO)[C@@H](O)[C@H]2O)n1 [ribavirin, reference compound]	–	–	–	–	–	–	–	–	CC50 (in vitro): ≥ 100 µM; EC50 [1, 11]: 8.9 µM; EC50 [1, 12]: 6.6 µM
CCOP(=O)(OCC)[C@H]1[C@H](c2ccc(F)c(C)c2)C(=O)N1Cc1ccccc1 (relative stereo) [trans-11f, trans-N-benzyl-3-(4-fluoro-3-methylphenyl)-4-(diethoxyphosphoryl)azetidin-2-one]	34.8	46.5	33.5	65.8	37	35.3	0.5	16	EC50 [2]: 54.7 µM; Activity against human coronavirus (229E) relative to ribavirin (human coronavirus (229E)): ~2.5 fold; EC50 (human coronavirus (229E); Human coronavirus 229E, HEL cells, reduction of virus-induced cytopathogenicity by 50%): 45 µM; Effect on normal cell morphology [3]: did not affect normal cell morphology
CCOP(=O)(OCC)[C@@H]1[C@H](c2ccc(F)c(C)c2)C(=O)N1C (relative stereo) [cis-10f, cis-N-methyl-3-(4-fluoro-3-methylphenyl)-4-(diethoxyphosphoryl)azetidin-2-one]	61.4	97.9	> 100	> 100	87	> 100	0.5	1–2	–
CCOP(=O)(OCC)[C@H]1[C@H](c2ccc(F)cc2F)C(=O)N1Cc1ccccc1 (relative stereo) [trans-11e, trans-N-benzyl-3-(2,4-difluorophenyl)-4-(diethoxyphosphoryl)azetidin-2-one]	36.5	42.9	25.6	> 100	24.4	36.6	0.5	1	–
Nc1nc(O)c2ncn(COC(CO)CO)c2n1 [ganciclovir]	–	–	–	–	–	–	–	–	EC50 [2]: 3.15 µM
CCOP(=O)(OCC)[C@H]1[C@H](c2ccc(F)cc2F)C(=O)N1C (relative stereo) [trans-10e, trans-N-methyl-3-(2,4-difluorophenyl)-4-(diethoxyphosphoryl)azetidin-2-one]	51.7	51.7	> 100	> 100	67.6	> 100	<0.5	1	–
CCOP(=O)(OCC)[C@H]1[C@H](c2cccc(F)c2)C(=O)N1C (relative stereo) [trans-10c, trans-N-methyl-3-(3-fluorophenyl)-4-(diethoxyphosphoryl)azetidin-2-one]	19.6	69.1	> 100	> 100	62.8	> 100	0.5	1	–
CCOP(=O)(OCC)[C@H]1[C@H](c2ccc(F)c(C)c2)C(=O)N1C (relative stereo) [trans-10f, trans-N-methyl-3-(4-fluoro-3-methylphenyl)-4-(diethoxyphosphoryl)azetidin-2-one]	47.7	41.8	90.2	> 100	59.7	> 100	0.5	1	–
CCOP(=O)(OCC)[C@@H]1[C@H](c2ccc(F)c(C)c2)C(=O)N1Cc1ccccc1 (relative stereo) [cis-11f, cis-N-benzyl-3-(4-fluoro-3-methylphenyl)-4-(diethoxyphosphoryl)azetidin-2-one]	38.4	> 100	> 100	> 100	53.6	> 100	<0.5	1–2	CC50 (in vitro): 39.9 µM; MCC (minimum cytotoxic concentration) [10]: > 100 µM; EC50 [1, 11]: 12 µM; EC50 [1, 12]: 8.3 µM
CCOP(=O)(OCC)[C@@H]1[C@H](c2ccc(F)cc2F)C(=O)N1Cc1ccccc1 (relative stereo) [cis-11e, cis-N-benzyl-3-(2,4-difluorophenyl)-4-(diethoxyphosphoryl)azetidin-2-one]	48.9	> 100	> 100	> 100	43	> 100	0.5	1	–
CCOP(=O)(OCC)[C@H]1[C@H](c2ccccc2)C(=O)N1C (relative stereo) [trans-10a, trans-N-methyl-3-phenyl-4-(diethoxyphosphoryl)azetidin-2-one]	–	–	–	–	–	–	1	1	IC50 [4]: 46.2 µM; IC50 [5]: > 100 µM; IC50 [6]: > 100 µM; IC50 [7]: > 100 µM; IC50 [8]: 54.6 µM; IC50 [9]: > 100 µM; OXA+ Cpd MIC (S. aureus ATCC 25923; [13]): 0.5 µg/mL; OXA+ Cpd MIC (MRSA HEMSA 5; [13]): 512 µg/mL
CCOP(=O)(OCC)[C@@H]1[C@H](c2ccc(F)cc2)C(=O)N1Cc1ccccc1 (relative stereo) [cis-11d, cis-N-benzyl-3-(4-fluorophenyl)-4-(diethoxyphosphoryl)azetidin-2-one]	35.9	61.9	> 100	> 100	45.9	54.1	1	1	–
Nc1ccn(C[C@@H](CO)OCP(=O)(O)O)c(=O)n1 [cidofovir]	–	–	–	–	–	–	–	–	EC50 [2]: 0.67 µM
